Source: patent EP1154766B1, “USE OF R-ARYL PROPIONIC ACIDS FOR PRODUCING MEDICAMENTS TO TREAT DISEASES IN HUMANS AND ANIMALS, WHEREBY SAID DISEASES CAN BE […] INFLUENCED BY INHIBITING THE ACTIVATION OF NF-KAPPA B” (PAZ Arzneimittel- Entwicklungsgesellschaft mbH, priority 1999, dated 2000)

Assays:
[1] = system: NF-κB; assay: Inhibition of NF-κB activation, method not stated; settings: arylpropionic acid derivatives without notable CoA thioester formation in humans
[2] = system: akutem Postepisiotomie-Schmerz; assay: Placebo-controlled double-blind study in acute post-episiotomy pain; type: in vivo, Frauen; settings: single oral dose 25 mg or 100 mg, pain scale 0-3 over 360 min, Abb. 1
Protocol: Abb. 1: Placebo-kontrollierte Doppelblind-Studie an 180 Frauen mit akutem Postepisiotomie-Schmerz (Mittelwertkurven)
Die hospitalisierten Patienten wurden in drei Medikationsgruppen mit je 50 Patienten und einer Placebogruppe (30 Patienten) randomisiert. Jede Patientin erhielt innerhalb 48 Stunden nach der ansonsten normal verlaufenden Entbindung eine Einzeldosis der zu untersuchenden Studienmedikation (25 mg R(-)Flurbiprofen oder 100 mg R(-)Flurbiprofen oder 1000 mg Paracetamol) oder ein Placebo oral verabreicht. Kurz vor der oralen Gabe der Testpräparate bzw. des Placebos und zu genau festgelegten Untersuchungszeitpunkten (15, 30, 45, 60, 120, 180, 240, 300 und 360 Minuten) wurden die Patienten bezüglich ihres Schmerzempfindens befragt. Die Wirksamkeit der einzelnen Präparate wurde anhand einer Schmerzempfindungs-Skala (0 = keine, 1 = mild, 2 = moderat, 3 = stark) beurteilt. Die zeitlichen Verläufe sind in den in Abbildung 1 wiedergegebenen Mittelwertkurven der einzelnen Patientengruppen zusammengefaßt.

[3] = system: NF-κB (p50/p65 Komplex von NF-κB); assay: Electro mobility-shift assay (gel retention analysis) of LPS-induced NF-κB activation in RAW cells; type: cell-based
Text: Die erfindungsgemäßen Arzneimittel auf der Basis von R-Arylpropionsäuren und deren Derivaten gemäß Anspruch 1 als Hemmer der NF-κB-Aktivierung zur Therapie von Erkrankungen, welche durch die Modifizierung der NF-κB-Aktiierung beeinflußt werden, beruht auf folgenden experimentellen Untersuchungen: Abb. 2: Konzentrationsabhängiger Einfluß von R- und S-Flurbiprofen auf die Aktivierung des Transkriptionsfaktors NF-κB in RAW-Zellen. Die Gelretentionsanalyse (Electro Mobility-Shift Assay; DIG Gel Shift Kit, Boehringer Mannheim) zeigt, daß LPS (1 µg/ml) zu einer Aktivierung von NF-κB (p50/p65 Komplex von NF-κB) führt (Spur Nr. 2 und 10). […] Eine densitometrische Auswertung ergab, daß S-Flurbiprofen hinsichtlich dieser Eigenschaften ca. 100 mal weniger potent war (Spur Nr. 11, 12, 13,14, gegen Spur Nr. 10 als Kontrolle). Spur Nr. 1 und 8 zeigen jeweils unstimulierte Kontrollzellen.

[4] = system: gastrointestinale Verträglichkeit; settings: studies in humans, literature; cited from earlier work
[5] = system: Zymosan-induzierte Rattenpfotenödem; assay: Zymosan-induced rat paw oedema (plethysmograph); type: in vivo, Ratte; settings: for Pfotenvolumen: rat, intraplantar zymosan, R-Flurbiprofen 1 to 27 mg/kg intraperitoneal, Abb. 3a-c
Text: Da der nukleäre Transkriptionsfaktor NF-κB u.a. für die Bildung, einer Reihe von Enzymen mit proinflammatorischer und ödembildender Eigenschaften verantwortlich ist, wurde der Einfluß von R-Flurbiprofen auf das Zymosan-induzierte Rattenpfotenödem bestimmt (Methode beschrieben bei: Meller ST und Gebhart GF: Intraplantar zymosan as a reliable, quantifiable model of thermal and mechanical hyperalgesia in the rat; European Journal of Pain, 1, 43-52 (1997). Abbildung 3 a - c faßt die Ergebnisse zusammen. Abb. 3a - c: Zeitabhängige Zunahme des Rattenpfotenvolumens (gemessen mit einem Plethysmographen) nach intraplantarer Applikation von Zymosan. Nach Applikation von Zymosan [Meller and Gebhart (s.o.)] in eine Hinterpfote der Ratte kommt es als Zeichen einer Entzündung zur Zunahme des Pfotenvolumens (Placebo-Gruppe, Applikation von Vehicle = Phosphatpuffer (PP)). […] Dieser Effekt war besonders ausgeprägt zwischen der 2. und 6. Stunde nach Zymosan-Applikation. Dexamethason (0,5 mg/kg Körpergewicht), ein bekannter Hemmer der NF-κB Aktivierung, wurde als Positivkontrolle eingesetzt. […] S-Flurbiprofen ist ein bekannter Hemmer der Cyclooxygenasen. Abb. 4: Zusammenfassung der Effekte von 9 mg/kg R-Flurbiprofen, 9 mg/kg S-Flurbiprofen und 0,5 mg/kg Dexamethason gegen Placebo (V) über 24 Stunden.

[6] = system: postoperative dental pain; settings: clinical study in patients, literature; cited from earlier work

CC(C(=O)O)c1ccc(-c2ccccc2)c(F)c1 (stereo not shown) [Flurbiprofen]
Hemmung der Aktivierung von NF-κB [1]: ausgeprägte Hemmung der Aktivierung von NF-κB

CC(C(=O)O)c1cccc(C(=O)c2ccccc2)c1 (stereo not shown) [Ketoprofen]
Hemmung der Aktivierung von NF-κB [1]: ausgeprägte Hemmung der Aktivierung von NF-κB

COc1ccc2cc([C@H](C)C(=O)O)ccc2c1 [Naproxen]
Hemmung der Aktivierung von NF-κB [1]: ausgeprägte Hemmung der Aktivierung von NF-κB

C[C@@H](C(=O)O)c1ccc(-c2ccccc2)c(F)c1 [R-Flurbiprofen]
schmerzlindernde Wirkung [2]: nachgewiesen | Hemmung der LPS induzierten Aktivierung von NF-κB ([3]; RAW-Zellen, LPS 1 µg/ml, micromolar concentrations, Abb. 2): waren in der Lage diese LPS induzierte Aktivierung von NF-κB zu hemmen | Hemmung der NF-κB Aktivierung, mal potenter als die entsprechenden S-Enantiomere ([3]; relative to the corresponding S-enantiomer): ca. 100 mal | gastrointestinale Verträglichkeit [4]: gute gastrointestinale Verträglichkeit | Effekte auf das Pfotenvolumen über 24 Stunden gegen Placebo ([5]; 9 mg/kg, compared with 0,5 mg/kg Dexamethason, Abb. 4): vergleichbar mit denen nach 0,5 mg/kg Dexamethason | Zeitraum, in dem der Effekt auf das Pfotenvolumen besonders ausgeprägt war ([5]; hours after zymosan application): zwischen der 2. und 6. Stunde | Pfotenvolumen [5]: überraschende Abnahme des Pfotenvolumens

C[C@@H](C(=O)O)c1cccc(C(=O)c2ccccc2)c1 [R-Ketoprofen]
schmerzlindernde Wirkung [6]: nachgewiesen

C[C@H](C(=O)O)c1ccc(-c2ccccc2)c(F)c1 [S-Flurbiprofen, reference compound]
Potenz der Hemmung der NF-κB Aktivierung, mal weniger potent than R-Flurbiprofen ([3]; densitometric evaluation of the gel shift, RAW-Zellen, LPS 1 µg/ml): ca. 100 mal | Pfotenvolumen [5]: Reduktion des Pfotenvolumens
